From patent US8193175B2, “Ruthenium complexes for treating cancers” (Universite de Strasbourg, priority 2004, dated 2012)

Key:
MOLT-4 = test: Proliferation test (UptiBlue) on MOLT-4; format: cell-based, human; details: p53 expressing line; read-out: IC50, proliferation of MOLT-4 cells
Protocol: (§1) The products are tested on different cell lines. The cells used are RDM4 from a murine T lymphoma and a MOLT-4 line originating from an acute lymphoblastic leukemia. These cancer lines both express the p53 protein, unlike the HL-60 cells from a human promyelocytary leukemia where, following deletion of its gene, p53 is absent.
(§2) All of these cells are cultivated in RPMI 1640-Glutamax, supplemented by 10% calf foetal serum heat inactivated at 56° C. for 30 minutes, 1 mM sodium pyruvate, 1 mM non-essential amino acids and 50 μg/mL gentamycine (Life Technologies, Cergy Pontoise, France). The cultures are kept in an incubator at 37° C. with a moisture saturated atmosphere, with 5% CO2.
This test uses the UptiBlue reagent (Interchim, Montluçon, France), metabolised by the living cells. The cells are incubated on plates with 96 wells with 10^4 cells/well (200 μL) with the product and cultivated for 72 hours. Then, 20 μL UptiBlue are added to each well. After 3 hours incubation, the fluorescence of the samples contained in the plates is measured at 590 nm (excitation at 560 nm), using a Fluorolite 1000 microplate reader (Dynex technologies, Issy-Les-Moulineaux, France). […]

HCT116 cells = test: Western blot of p53, p21 and phospho-histone H3 in HCT116 cells; format: cell-based, human; details: 10 μM
Protocol: FIG. 5: Detection of p53, p21 and of the phosphorylation of histone H3 in the HCT116 cells treated with CDR. The HCT116 cells were treated with the various compounds (10 μM) and for the periods of time indicated (24 hrs or 6 hrs). The proteins were extracted with a lysis buffer and were separated on 10% SDS-Page gel. After being transferred onto nitrocellulose, the p53, p21 proteins and histone H3 were detected by Western blot using anti-p53 (pAb1801), anti-p21 (1/200, Oncogene) antibody and anti-phospho serine 10 of histone H3 (1/2000, Santacruz).
For the purpose of determining the molecular mechanisms used by the ruthenium derivatives and comparing them with those induced by cisplatinum, the expression of p53, p73 p21 and bax in the A172 and HCT116 lines was analysed.

RDM4 line = test: Proliferation test (UptiBlue) on RDM4 line; format: cell-based, mouse; details: 72 hours
Protocol: as §1, §2
This test uses the UptiBlue reagent (Interchim, Montluçon, France), metabolised by the living cells. The cells are incubated on plates with 96 wells with 10^4 cells/well (200 μL) with the product and cultivated for 72 hours. Then, 20 μL UptiBlue are added to each well. After 3 hours incubation, the fluorescence of the samples contained in the plates is measured at 590 nm (excitation at 560 nm), using a Fluorolite 1000 microplate reader (Dynex technologies, Issy-Les-Moulineaux, France).
The potential anti-cancers are first of all selected on the RDM4 line. The effect of the different organo-ruthenium compounds upon the cell viability is firstly determined by a proliferation test as a function of the product concentration. The activity of the compounds derived from Ru is compared to that of cisplatinum. The exposure of the RDM4 cells to these derivatives is translated by a dose-dependent reduction in their proliferation. Therefore, the effect is dependent upon the organic complex which surrounds the Ru nucleus. The inhibition concentration of the growth of 50% of the cells (IC50) is determined for each of the products. […] The ruthenium derivatives showing an excessive IC50 (>50 μM) were eliminated from the biological study.

N.N.[Cl][Pt][Cl] [Cisplatinum, reference compound]
IC50 (MOLT-4): < 0.5 µM | increase in expression of p21 and inhibition of phosphorylation of histone H3 (HCT116 cells): identical for CDR 6 and cisplatinum

[Ru(C6H4-2-C5H4N)(phen)(NCMe)2]PF6 [Compound 11]
IC50 (RDM4 line): 11 µM
